Organism: Rattus norvegicus
Assay: Open TG-GATES - Regimen: Daily Repeat
Assay type: toxicity, organism-based, Sprague-Dawley
Parameters: regimen Daily Repeat, gender Male, age 6 weeks
Conditions: in vivo, po, route gavage; for Bas / Eos / Fbg / Lym / MCH / MCHC / MCV / Mono / Neu / PT / Plat / RBC / Ret / WBC: tissue Blood; for KIDNEY_L / KIDNEY_R / KIDNEY_TOTAL: tissue Kidney; for ALP / ALT / AST / BUN / CRE / DBIL / IP / K / LDH / Na / RALB / TBIL / TC / TG / TP / gamma-GTP / GLC: tissue Plasma
[1] = 0 mg/kg, 72 h, dose level Control, time 3 day
[2] = 0 mg/kg, […], dose level Control, time 7 day
[3] = 0 mg/kg, […], dose level Control, time 14 day
[4] = 0 mg/kg, […], dose level Control, time 28 day
[5] = 3 mg/kg, 72 h, dose level Low, time 3 day
[6] = 3 mg/kg, […], dose level Low, time 7 day
[7] = 3 mg/kg, […], dose level Low, time 14 day
[8] = 3 mg/kg, […], dose level Low, time 28 day

Cc1cnc(NC(=O)C2=C(O)c3ccccc3S(=O)(=O)N2C)s1 [MELOXICAM] was tested, and the TERMINAL_BW [1] was 245.1 g, the Bas [1] was 0.8% and the Eos [1] was 1.2%. For the same molecule, the Fbg [1] was 223.6 mg/dL, the Lym [1] was 78.4% and the MCH [1] was 21.4 pg. The MCHC [1] was 34.2%, the MCV [1] was 62.4 fL and the Mono [1] was 2.8%. For the same molecule, the Neu [1] was 17%, the PT [1] was 11.9 s and the Plat [1] was 120 x10_4/uL. The RBC [1] was 645.4 x10_4/ul, the Ret [1] was 5.5% and the KIDNEY_L [1] was 1 g. For the same molecule, the KIDNEY_R [1] was 1 g, the KIDNEY_TOTAL [1] was 2 g and the ALP [1] was 947 IU/L. It also gave an ALT [1] of 42.2 IU/L, an AST [1] of 70.4 IU/L and a BUN [1] of 18 mg/dL. It also gave a CRE [1] of 0.4 mg/dL, a DBIL [1] of 0.1 mg/dL and an IP [1] of 7.7 mg/dL. The K [1] was 4.1 meq/L, the LDH [1] was 199.2 IU/L and the Na [1] was 141 meq/L. For the same molecule, the RALB [1] was 3.5 g/dL, the TBIL [1] was 0.2 mg/dL and the TC [1] was 70.8 mg/dL. It also gave a TG [1] of 111.6 mg/dL, a TP [1] of 5.6 g/dL and a gamma-GTP [1] of 1 IU/L. It also gave a TERMINAL_BW [2] of 281.9 g, a TERMINAL_BW [3] of 300.3 g and a TERMINAL_BW [4] of 396.9 g. It also gave a Bas [2] of 0.8%, an Eos [2] of 1% and a Fbg [2] of 216.6 mg/dL. The Lym [2] was 78.4%, the MCH [2] was 21.4 pg and the MCHC [2] was 34.9%. The MCV [2] was 61.4 fL, the Mono [2] was 2.4% and the Neu [2] was 16.6%. The PT [2] was 11.9 s, the Plat [2] was 139.5 x10_4/uL and the RBC [2] was 655.6 x10_4/ul. The Ret [2] was 5.1%, the Bas [3] was 1% and the Eos [3] was 0.8%. It also gave a Fbg [3] of 226.8 mg/dL, a Lym [3] of 78.4% and an MCH [3] of 20.1 pg. For the same molecule, the MCHC [3] was 34%, the MCV [3] was 59.1 fL and the Mono [3] was 2.8%. The Neu [3] was 16.8%, the PT [3] was 11.6 s and the Plat [3] was 111.1 x10_4/uL. For the same molecule, the RBC [3] was 734.2 x10_4/ul, the Ret [3] was 3.2% and the Bas [4] was 1%. It also gave an Eos [4] of 1%, a Fbg [4] of 207.2 mg/dL and a Lym [4] of 87%. It also gave an MCH [4] of 19.3 pg, an MCHC [4] of 34.4% and an MCV [4] of 56.1 fL. The Mono [4] was 1.5%, the Neu [4] was 9% and the PT [4] was 11.6 s. The RBC [4] was 768.2 x10_4/ul, the Ret [4] was 2.4% and the WBC [4] was 144.5 x10_2/uL. The KIDNEY_L [2] was 1.2 g, the KIDNEY_R [2] was 1.1 g and the KIDNEY_TOTAL [2] was 2.3 g. It also gave a KIDNEY_L [3] of 1.2 g, a KIDNEY_R [3] of 1.2 g and a KIDNEY_TOTAL [3] of 2.4 g. The KIDNEY_L [4] was 1.4 g, the KIDNEY_R [4] was 1.3 g and the KIDNEY_TOTAL [4] was 2.7 g. The ALP [2] was 892.2 IU/L, the ALT [2] was 33.8 IU/L and the AST [2] was 68.2 IU/L. It also gave a BUN [2] of 15.8 mg/dL, a CRE [2] of 0.4 mg/dL and a DBIL [2] of 0.082 mg/dL. For the same molecule, the GLC [2] was 214.8 mg/dL, the IP [2] was 7.3 mg/dL and the K [2] was 3.8 meq/L. For the same molecule, the LDH [2] was 190.6 IU/L, the Na [2] was 142 meq/L and the RALB [2] was 3.3 g/dL. For the same molecule, the TBIL [2] was 0.1 mg/dL, the TC [2] was 67.2 mg/dL and the TG [2] was 110.2 mg/dL. For the same molecule, the TP [2] was 5.7 g/dL, the gamma-GTP [2] was 1.2 IU/L and the ALP [3] was 880.6 IU/L. For the same molecule, the ALT [3] was 36.6 IU/L, the AST [3] was 69.6 IU/L and the BUN [3] was 16.4 mg/dL. It also gave a CRE [3] of 0.4 mg/dL, a DBIL [3] of 0.094 mg/dL and an IP [3] of 6.9 mg/dL. For the same molecule, the K [3] was 4 meq/L, the LDH [3] was 178.6 IU/L and the Na [3] was 142 meq/L. For the same molecule, the RALB [3] was 3.6 g/dL, the TBIL [3] was 0.2 mg/dL and the TC [3] was 69 mg/dL. It also gave a TG [3] of 113.2 mg/dL, a TP [3] of 6.1 g/dL and a gamma-GTP [3] of 1 IU/L. For the same molecule, the ALP [4] was 523.8 IU/L, the ALT [4] was 32 IU/L and the AST [4] was 65.8 IU/L. For the same molecule, the BUN [4] was 18.2 mg/dL, the CRE [4] was 0.5 mg/dL and the DBIL [4] was 0.1 mg/dL. It also gave a GLC [4] of 239.5 mg/dL, an IP [4] of 6.9 mg/dL and a K [4] of 4.1 meq/L. For the same molecule, the LDH [4] was 187.8 IU/L, the Na [4] was 140.8 meq/L and the RALB [4] was 3.5 g/dL. For the same molecule, the TBIL [4] was 0.2 mg/dL, the TC [4] was 69 mg/dL and the TG [4] was 141.2 mg/dL. The TP [4] was 5.9 g/dL, the gamma-GTP [4] was 0.5 IU/L and the TERMINAL_BW [5] was 246.9 g. For the same molecule, the Bas [5] was 0.8%, the Eos [5] was 0.8% and the Fbg [5] was 225.2 mg/dL. For the same molecule, the Lym [5] was 83%, the MCH [5] was 21.6 pg and the MCHC [5] was 34.6%. It also gave an MCV [5] of 62.5 fL, a Mono [5] of 2.2% and a Neu [5] of 13%. The PT [5] was 11.8 s, the Plat [5] was 121.1 x10_4/uL and the RBC [5] was 639.2 x10_4/ul. It also gave a Ret [5] of 5.7%, a KIDNEY_L [5] of 1.1 g and a KIDNEY_R [5] of 1.1 g. For the same molecule, the KIDNEY_TOTAL [5] was 2.2 g, the ALP [5] was 950.2 IU/L and the ALT [5] was 35.6 IU/L. It also gave an AST [5] of 62.4 IU/L, a BUN [5] of 15.2 mg/dL and a CRE [5] of 0.4 mg/dL. For the same molecule, the DBIL [5] was 0.1 mg/dL, the IP [5] was 7.6 mg/dL and the K [5] was 4.1 meq/L. It also gave an LDH [5] of 195.6 IU/L, a Na [5] of 141 meq/L and an RALB [5] of 3.5 g/dL. The TBIL [5] was 0.2 mg/dL, the TC [5] was 69.8 mg/dL and the TG [5] was 140.8 mg/dL. For the same molecule, the TP [5] was 5.6 g/dL, the gamma-GTP [5] was 0.8 IU/L and the TERMINAL_BW [6] was 277.7 g. For the same molecule, the TERMINAL_BW [7] was 332.6 g, the TERMINAL_BW [8] was 420.4 g and the Bas [6] was 1%. The Eos [6] was 1%, the Fbg [6] was 226.4 mg/dL and the Lym [6] was 81.6%. It also gave an MCH [6] of 21.9 pg, an MCHC [6] of 34.7% and an MCV [6] of 63.3 fL. For the same molecule, the Mono [6] was 2.4%, the Neu [6] was 14.6% and the PT [6] was 11.9 s. The Plat [6] was 124.9 x10_4/uL, the RBC [6] was 637.8 x10_4/ul and the Ret [6] was 5.5%. It also gave a WBC [6] of 129.6 x10_2/uL, a Bas [7] of 1% and an Eos [7] of 1%. For the same molecule, the Fbg [7] was 222.4 mg/dL, the Lym [7] was 80% and the MCH [7] was 20.4 pg. For the same molecule, the MCHC [7] was 33.6%, the MCV [7] was 60.7 fL and the Mono [7] was 2.6%. It also gave a Neu [7] of 15.2%, a PT [7] of 11.6 s and a Plat [7] of 118.9 x10_4/uL. The RBC [7] was 689.2 x10_4/ul, the Ret [7] was 4.1% and the WBC [7] was 124.4 x10_2/uL. It also gave a Bas [8] of 1%, an Eos [8] of 1% and a Fbg [8] of 213.8 mg/dL. The Lym [8] was 81.2%, the MCH [8] was 18.9 pg and the MCHC [8] was 34.2%. For the same molecule, the MCV [8] was 55.2 fL, the Mono [8] was 2.2% and the Neu [8] was 13.4%. The PT [8] was 11.7 s, the Plat [8] was 115.1 x10_4/uL and the RBC [8] was 790 x10_4/ul. The Ret [8] was 2.5%, the WBC [8] was 131 x10_2/uL and the KIDNEY_L [6] was 1.3 g. It also gave a KIDNEY_R [6] of 1.2 g, a KIDNEY_TOTAL [6] of 2.5 g and a KIDNEY_L [7] of 1.4 g. The KIDNEY_R [7] was 1.3 g, the KIDNEY_TOTAL [7] was 2.7 g and the KIDNEY_L [8] was 1.5 g. For the same molecule, the KIDNEY_R [8] was 1.5 g, the KIDNEY_TOTAL [8] was 3 g and the ALP [6] was 971.8 IU/L. For the same molecule, the ALT [6] was 37 IU/L, the AST [6] was 68.4 IU/L and the BUN [6] was 15.2 mg/dL. It also gave a CRE [6] of 0.4 mg/dL, a DBIL [6] of 0.098 mg/dL and an IP [6] of 7.4 mg/dL. The K [6] was 4.1 meq/L, the LDH [6] was 186.8 IU/L and the Na [6] was 141.8 meq/L. The RALB [6] was 3.4 g/dL, the TBIL [6] was 0.2 mg/dL and the TC [6] was 72.6 mg/dL. The TG [6] was 128.8 mg/dL, the TP [6] was 5.7 g/dL and the gamma-GTP [6] was 1.2 IU/L. It also gave an ALP [7] of 820.8 IU/L, an AST [7] of 75.2 IU/L and a BUN [7] of 17 mg/dL. It also gave a CRE [7] of 0.5 mg/dL, a DBIL [7] of 0.1 mg/dL and a GLC [7] of 214.6 mg/dL. The IP [7] was 7.4 mg/dL, the K [7] was 4 meq/L and the LDH [7] was 223.6 IU/L. It also gave a Na [7] of 141.4 meq/L, an RALB [7] of 3.5 g/dL and a TBIL [7] of 0.2 mg/dL. The TC [7] was 72.6 mg/dL, the TG [7] was 141.8 mg/dL and the TP [7] was 5.9 g/dL. The gamma-GTP [7] was 1 IU/L.

Reference: ChEMBL document CHEMBL3885861, “Open TG-GATES”
